Test results taken from patent US12492174B2, “Morpholine-3-carboxamide derivatives as prostaglandin E2 receptor 4 (EP4) agonists for the treatment of gastrointestinal and pulmonary diseases” (NXERA PHARMA UK LIMITED, priority 2022, dated 2025).

How the values were obtained:
human EP4 = biological target: T1, human EP4 (Homo sapiens, UniProt P35408); assay: cAMP Gs functional assay (HTRF cAMP dynamic-2); format: cell-based; settings: for Emax: HEK293, HEK293 cells transfected with EP4 Bacmam virus, positive control 10 uM PGE2; for EC50: HEK293 cells transfected with EP4 Bacmam virus, 30 mins at 37° C., −Log of the molarity (M), read-out: cAMP human EP4 pEC50 (converted)
T1 construct: expressed in transfected cells; host or cells: HEK293 cells transduced with EP4 BacMam virus
Experimental: Cloning, Baculovirus generation, large scale infection of HEK293 cells and membrane preparation: Human prostaglandin E2 receptor 4 (EP4) was cloned into pBacMam expression vector (GeneScript, UK). Transposition of EP4 DNA was performed using Invitrogen's Bac-to-Bac Baculovirus Expression Systems. P0 baculovirus was generated by transfecting SF9 Cells with bacmid DNA using Cellfectin II transfection reagent (ThermoFisher Scientific, UK). Following P0 generation P1 virus was then generated ready for large scale infection and membrane preparation. HEK293 cells were grown in DMEM (ThermoFisher Scientific, UK), supplemented with 10% heat inactivated fetal bovine serum (FBS). Cells were infected at a seeding density of 3.5 million cells/mL in 500 cm^3 flasks at 5% v/v EP4 Bacman. Expression was carried out over a 36 hr period at 37° C. with 5% CO2. The cells were removed using PBS and a cell scrapper. The cell culture was centrifuged at 2500 RPM for 10 mins at 4° C. The supernatant was then poured off and the pellet stored at −80° C. The pellet was defrosted and re-suspended in 15 mL of homogenising buffer (20 mM HEPES, 10 mM EDTA, pH 7.4). Then homogenised in mechanical homogeniser (VMR) for 10 seconds. The membrane was centrifuged in centrifuge tubes at 40,000 g for 15 mins at 4° C. The supernatant was poured away and re-suspended in 15 mL of homogenising buffer. Homogenised for 20 seconds. The membrane was centrifuged at 40,000 g for 45 mins at 4° C. The membrane was re-suspended in 3 mL of storage buffer (20 mM HEPES, 0.1 mM EDTA, pH 7.4) mixing well. The resulting membranes were then stored at −80° C.
cAMP Gs Functional Assay: cAMP production following EP4 receptor activation was determined using the Homogeneous Time-Resolved Fluorescence (HTRF) cAMP dynamic-2 assay (Cisbio, France). HEK293 cells were transfected using a 0.5% EP4 Bacmam virus for 36 hours, before dissociating the cells, and freezing at −150° C.
On the day of testing, increasing concentration of test compounds, alongside positive controls (10 uM PGE2 (Tocris, Abingdon, UK)) and negative control (DMSO (Sigma-Aldrich, UK) were added to a ProxiPlate-384 Plus, White 384-shallow well Mircoplate, (PerkinElmer, USA) using the ECHO dispense.
Cells were defrosted in a water bath and resuspended in DMEM supplemented with 10% FBS before centrifuging at 1200 RPM for 5 mins to form a pellet. The pellet was resuspended in assay buffer (DMEM+0.5 mM IBMX (Tocris, Abingdon, UK)) to 0.5×10^6 cells/mL. Cell suspension, for a final assay concentration of 5000 cell/well was added using the multidrop to the pre-dispensed assay plate. The plate was then incubated at 37° C. for 30 mins, with 5% CO2. The cAMP production was determined as manufacturer's instructions, before plates were read on a PheraStar fluorescence plate reader (BMG LabTech, Germany).
The pEC50 values (−Log of the molarity (M) in mol/liter) were calculated from the mid-point of the curve using dotmatics as shown in Table 3.

[1] = Unidirectional Caco-2 cell permeability assay; format: in vitro ADME; settings: human, n=2, apical pH 6.5, basolateral pH 7.4, 1 hour, 37° C.
Experimental: Caco-2 cells (ECACC) were seeded onto 24-well Transwell plates at 2×10^5 cells per well and used in confluent monolayers after a 21 day culture at 37° C. under 5% CO2. Test compounds were incubated at 10 μM, 0.2% DMSO final, n=2 in assay buffer (Hanks balanced salt solution supplemented with 25 mM HEPES, adjusted to pH 6.5). Hanks balanced salt solution supplemented with 25 mM HEPES, adjusted to pH 7.4 (0.2% DMSO final) was used for the basolateral chamber (as receiver).
Incubations were performed at 37° C., with samples removed from both donor and acceptor chambers at T=0 and 1 hour and compound analysed by mass spectrometry (LC-MS/MS) including an analytical internal standard (0.5 μM carbamazepine).
Apparent permeability (Papp) values are shown in Table 4 and were determined from the relationship:
Where V is the volume of each Transwell compartment (apical 125 μL, basolateral 600 μL), and concentrations are the relative MS responses for compound (normalized to internal standard) in the donor chamber before incubation and acceptor chamber at the end of the incubation Area=area of cells exposed for drug transfer (0.33 cm^2).
Lucifer Yellow (LY) was added to the apical buffer in all wells to assess viability of the cell layer. As LY cannot freely permeate lipophilic barriers, a high degree of LY transport indicates poor integrity of the cell layer and wells with a LY Papp>10×10^−6 cm/s were rejected.
Compound recovery from the wells was determined from MS responses (normalized to internal standard) in donor and acceptor chambers at the end of incubation compared to response in the donor chamber pre-incubation.

T1 sequence (P35408 whole entry): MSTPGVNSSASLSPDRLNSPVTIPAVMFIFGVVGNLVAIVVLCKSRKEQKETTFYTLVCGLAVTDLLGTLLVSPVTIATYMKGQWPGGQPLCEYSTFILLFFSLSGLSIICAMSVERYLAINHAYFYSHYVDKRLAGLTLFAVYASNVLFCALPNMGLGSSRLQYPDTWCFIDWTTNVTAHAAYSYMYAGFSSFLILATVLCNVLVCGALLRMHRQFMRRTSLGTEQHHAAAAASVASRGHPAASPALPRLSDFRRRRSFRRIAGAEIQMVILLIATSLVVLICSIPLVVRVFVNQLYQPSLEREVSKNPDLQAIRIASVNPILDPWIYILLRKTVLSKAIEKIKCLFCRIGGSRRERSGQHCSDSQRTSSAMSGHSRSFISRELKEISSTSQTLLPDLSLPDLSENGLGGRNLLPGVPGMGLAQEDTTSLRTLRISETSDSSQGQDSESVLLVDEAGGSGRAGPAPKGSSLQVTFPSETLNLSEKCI

Row | SMILES | Emax (human EP4) [%] | EC50 (human EP4) [M] | Papp A→B at 1 h, 10 μM [1] [×10⁻⁶ cm/s]
1 | Cc1cc(C(N)=O)ccc1-c1cc(O)cc(CN2CCOC[C@@H]2C(=O)N[C@@H](C)c2ccc(C(=O)O)cc2)c1 [Example 10, 4-((S)-1-((R)-4-((4′-carbamoyl-5-hydroxy-2′-methyl-[1,1′-biphenyl]-3-yl)methyl)morpholine-3-carboxamido)ethyl)benzoic acid] | 98 | 2e-10 | < 0.1
2 | Cc1cc(C(N)=O)ccc1-c1cccc(CN2CCOC[C@@H]2C(=O)NCc2cc(F)c(C(=O)O)c(F)c2)c1 [Example 8, 4-[[[(3R)-4-[[3-(4-carbamoyl-2-methyl-phenyl)phenyl]methyl]morpholine-3-carbonyl]amino]methyl]-2,6-difluoro-benzoic acid] | 96 | 1.58e-07 | < 0.1
3 | Cc1cc(C(N)=O)ccc1-c1cccc(CN2CCOC[C@@H]2C(=O)N[C@@H](C)c2ccc(C(=O)O)c(O)c2)c1 [Example 19, 4-((S)-1-((R)-4-((4′-carbamoyl-2′-methyl-[1,1′-biphenyl]-3-yl)methyl)morpholine-3-carboxamido)ethyl)-2-hydroxybenzoic acid] | 99 | 1e-08 | < 0.1
4 | NC(=O)c1ccc(-c2cc(CN3CCOC[C@@H]3C(=O)NC3(c4ccc(C(=O)O)cc4)CC3)ccc2O)cc1 [Example 34, (R)-4-(1-(4-((4′-carbamoyl-6-hydroxy-[1,1′-biphenyl]-3-yl)methyl)morpholine-3-carboxamido)cyclopropyl)benzoic acid] | 97 | 3.98e-10 | 0.39
5 | Cc1cc(C(N)=O)ccc1-c1cc(O)cc(CN2CCOC[C@H]2C(=O)N[C@@H](C)c2ccc(C(=O)O)cc2)c1 [Example 37, 4-((S)-1-((S)-4-((4′-carbamoyl-5-hydroxy-2′-methyl-[1,1′-biphenyl]-3-yl)methyl)morpholine-3-carboxamido)ethyl)benzoic acid] | – | > 1e-07 | < 0.1
6 | Cc1cc(S(N)(=O)=O)ccc1-c1cccc(CN2CCOC[C@@H]2C(=O)N[C@@H](C)c2ccc(C(=O)O)cc2)c1 [Example 5, 4-((S)-1-((R)-4-((2′-methyl-4′-sulfamoyl-[1,1′-biphenyl]-3-yl)methyl)morpholine-3-carboxamido)ethyl)benzoic acid] | 100 | 7.94e-10 | 0.59
7 | Cc1cc(S(N)(=O)=O)ccc1-c1ccnc(CN2CCOC[C@@H]2C(=O)N[C@@H](C)c2ccc(C(=O)O)cc2)c1 [Example 17, 4-[(1S)-1-[[(3R)-4-[[4-(2-methyl-4-sulfamoyl-phenyl)-2-pyridyl]methyl]morpholine-3-carbonyl]amino]ethyl]benzoic acid] | 98 | – | 0.12
8 | Cc1cc(S(N)(=O)=O)ccc1-c1cncc(CN2CCOC[C@@H]2C(=O)N[C@@H](C)c2ccc(C(=O)O)c(O)c2)c1 [Example 21, 2-hydroxy-4-((S)-1-((R)-4-((5-(2-methyl-4-sulfamoylphenyl)pyridin-3-yl)methyl)morpholine-3-carboxamido)ethyl)benzoic acid] | 99 | 1.58e-08 | < 0.1
9 | NC(=O)c1ccc(-c2cccc(CN3CCOC[C@@H]3C(=O)NC3(c4ccc(C(=O)O)cc4)CC3)c2)c(O)c1 [Example 32, (R)-4-(1-(4-((4′-carbamoyl-2′-hydroxy-[1,1′-biphenyl]-3-yl)methyl)morpholine-3-carboxamido)cyclopropyl)benzoic acid] | 91 | 6.31e-10 | 0.15
10 | Cc1cc(C(N)=O)ccc1-c1cc(O)cc(CN2CCOC[C@@H]2C(=O)N[C@@H](C)c2ccc(-c3nnn[nH]3)cc2)c1 [Example 36, (R)—N-((S)-1-(4-(1H-tetrazol-5-yl)phenyl)ethyl)-4-((4′-carbamoyl-5-hydroxy-2′-methyl-[1,1′-biphenyl]-3-yl)methyl)morpholine-3-carboxamide] | 96 | 2.51e-10 | 0.11
11 | Cc1cc(C(N)=O)ccc1-c1cncc(CN2CCOC[C@@H]2C(=O)N[C@@H](C)c2ccc(C(=O)O)c(O)c2)c1 [Example 28, 4-((S)-1-((R)-4-((5-(4-carbamoyl-2-methylphenyl)pyridin-3-yl)methyl)morpholine-3-carboxamido)ethyl)-2-hydroxy benzoic acid] | 100 | – | 0.23
12 | Cc1cc(C(N)=O)ccc1-c1cc(O)cc(CN2CCOC[C@@H]2C(=O)N[C@H](C)c2ccc(C(=O)O)cc2)c1 [Example 39, 4-((R)-1-((R)-4-((4′-carbamoyl-5-hydroxy-2′-methyl-[1,1′-biphenyl]-3-yl)methyl)morpholine-3-carboxamido)ethyl)benzoic acid] | 99 | 7.94e-11 | 0.35
13 | Cc1cc(S(N)(=O)=O)ccc1-c1cncc(CN2CCOC[C@@H]2C(=O)N[C@@H](C)c2ccc(C(=O)O)cc2)c1 [Example 12, 4-[(1S)-1-[[(3R)-4-[[5-(2-methyl-4-sulfamoyl-phenyl)-3-pyridyl]methyl]morpholine-3-carbonyl]amino]ethyl]benzoic acid] | 99 | 1.58e-08 | 0.12
14 | C[C@H](NC(=O)[C@H]1COCCN1Cc1ccc(O)c(-c2ccc(S(N)(=O)=O)cc2)c1)c1ccc(C(=O)O)cc1 [Example 24, 4-[(1S)-1-[[(3R)-4-[[4-hydroxy-3-(4-sulfamoylphenyl)phenyl]methyl]morpholine-3-carbonyl]amino]ethyl]benzoic acid] | 96 | 2.51e-08 | 0.26
15 | C[C@H](NC(=O)[C@H]1COCCN1Cc1ccc(O)c(-c2ccc(C(N)=O)cc2)c1)c1ccc(C(=O)O)cc1 [Example 23, 4-[(1S)-1-[[(3R)-4-[[3-(4-carbamoylphenyl)-4-hydroxy-phenyl]methyl]morpholine-3-carbonyl]amino]ethyl]benzoic acid] | 93 | 1e-08 | 0.48
16 | Cc1cc(C(N)=O)ccc1-c1cccc(CN2CCOC[C@@H]2C(=O)N[C@@H](C)c2ccc(C(=O)O)cc2)c1 [Example 7, 4-((S)-1-((R)-4-((4′-carbamoyl-2′-methyl-[1,1′-biphenyl]-3-yl)methyl)morpholine-3-carboxamido)ethyl)benzoic acid] | 99 | 1.58e-09 | 0.66
17 | Cc1cc(C(N)=O)ccc1-c1cccc(CN2CCOC[C@@H]2C(=O)NCc2ccc(C(=O)O)nc2)c1 [Example 9, 5-[[[(3R)-4-[[3-(4-carbamoyl-2-methyl-phenyl)phenyl]methyl]morpholine-3-carbonyl]amino]methyl]pyridine-2-carboxylic acid] | 97 | 3.98e-08 | 0.24
